From patent US20080274998A1, “Disaccharide Molecules and Derivatives Thereof and Methods of Using Same” (YEDA RESEARCH AND DEVELOPMENT CO. LTD., priority 2004, published 2008)
One block for each molecule: values may come before it.

Key:
Jurkat cells = experiment: 51Cr-labeled Jurkat cell adhesion to fibronectin; type: cell-based; conditions: DS-9267 100 ng/ml; fibronectin 1 μg/ml; adherent cells determined after 30 minutes
Method: The amount of adherent cells was determined 30 minutes later. Non-adherent cells were washed away and the remaining bound cells were lysed. The radioactivity of lysates, representing the amount of fibronectin-adherent cells, was determined using a γ-counter. The results represent the percentage of cells that were bound to the wells from total cells that were added to each well.
Jurkat cells, a CD4+ T-lymphoma cell line, were maintained in medium consisted of RPMI 1640 (Bet Haemek, Israel), supplemented with 10% cosmic calf serum (HyClone Laboratories), 2 mM L-glutamin and 1% Pen-Strep (Bet Haemek, Israel), at 37° C., in an atmosphere of 5% CO2.
It was shown that certain heparin- and heparan sulfate-derived DS induced, in a dose-dependent manner, the adhesion of human T cells to both ECM and immobilized fibronectin (6). This adhesion appears to involve β1 integrin recognition and activation and is associated with specific intracellular activation pathways (6). Since moesin is expressed on T cells, antibody to moesin was examined for the potential to block the ability of DS to induce adhesion in T cells.

T cells = experiment: T cell adhesion to fibronectin-coated wells after DS pretreatment and activation; type: cell-based, human; conditions: T cells pretreated with DS at 1 ng/ml, 30 minutes; chemoattractants MIP-1β, SDF-1α or RANTES 20 ng/ml each
Method: T cells were pretreated with DS9392 (A), DS9267 or DS8892 (B), at 1 ng/ml, 30 minutes incubation for each, and were then seeded on fibronectin (FN)-coated microtiter wells and activated with either PMA (50 ng/ml), anti-CD3 mAb (15 μg/ml), IL-2 (10 IU/ml) or one of the chemoattractants, MIP-Iβ, SDF-Iα or RANTES (20 ng/ml each). T cell adhesion was then measured.
Human T cells were purified from the peripheral blood of healthy donors. Briefly, human peripheral blood was isolated on Ficoll gradients, washed, resuspended in PBS containing 3% heat-inactivated FCS (Bet Haemek, Israel), and incubated (45 min, 37° C., 7% CO2-humidified atmosphere) on nylon-wool columns (NovaMed; Jerusalem, Israel). Non-adherent cells were eluted and washed, and platelets were removed by centrifugation (700 rpm, 15 min, 18° C.). Residual monocytes were removed by incubation of the cells on tissue culture plates (2 h, 37° C.), after which non-adherent cells were collected. The CD3^+ content of these PBLs was >95%.
Without wishing to be limited by a single hypothesis, binding of the DS to moesin would appear to promote inhibition of T-cell adhesion and migration.

recombinant moesin = biological target: T1, recombinant moesin (Homo sapiens, UniProt P26038); experiment: Binding of heparin-disaccharide to immobilized recombinant moesin (plate assay, anti-heparan sulfate mAb detection); conditions: plates coated with recombinant moesin or purified BSA, detection with anti-heparan sulfate mAb and anti-rat IgM Ab, duplicate
T1 construct: The plasmid pGEX-KG-human moesin residues 1-577 (pGhuMo); GST (cleaved yes); made in house; host or cells: Escherichia coli
Method: Following coating, DS-9392 was added to the plates, incubated and washed. Detection was performed using an anti-heparan sulfate mAb followed by an anti-rat IgM Ab. Each experiment was performed in duplicate. The results represent mean and SD.
The plasmid pGEX-KG-human moesin residues 1-577 (pGhuMo) (provided by Prof. Furthhmayer [Stanford, Calif.]) contains human moesin as a fusion protein to glutathione S-transferase (GST). Escherichia coli (E. coli) bacteria were transformed with pGhuMo and grown in L-broth containing penicillin (100 μg/ml). These bacteria were induced to express the fusion protein with 100 μM isopropyl β-D-thiogalactopyranoside (IPTG). The recombinant protein was bound to a glutathione-agarose column (Sigma) and cleaved with thrombin (Pharmacia; Piscataway, N.J.). The purified protein was dialyzed against PBS at 4° C. and stored at −70^cC. The purity and integrity of the protein were determined by size separation using SDS-polyaclrylamide gel electrophoresis (PAGE), Coomassie blue staining, and Western blotting with the anti-human moesin mAb clone 38/87. The protein was quantitated by densitometric analysis of recombinant moesin and known amounts of BSA, which were used to construct a standard curve.
Since moesin binds to heparin and heparan sulfate (1), disaccharide (DS) derived from heparin was also tested to see if it could also bind to moesin.

HT-29 cells = experiment: TNFα-induced IL-8 / IL-1β secretion from HT-29 cells (ELISA); type: cell-based; conditions: DS-9267 pre-incubated 30 min with increasing concentrations of recombinant human moesin; TNFα-stimulated HT-29 cells, 24 hours
Method: Following culture, the cells were pre-incubated for 30 minutes with either anti-moesin or control antibody (anti HSP-60). Then DS-9267 was added for 30 minutes, after which TNFα (200 ng/ml) was added and the cells were incubated for additional 20 hours. Subsequently, the supernatants were collected and the level of IL-8 was determined.
Following culture, the cells were supplemented with fresh medium and the DS-9267 which was pre-incubated for 30 minutes with recombinant moesin at the indicated concentrations was added to all cells except for the controls. The culture was continued for 24 hours. Subsequently, the supernatants were collected and assayed for the concentrations of IL-8 (A) and IL-1β (B).
Epithelial cells were grown as confluent monolayer's in 24-well tissue culture plates. […] Following culture, the supernatants were harvested and analyzed for cytokine secretion. […]
IL-8 concentration was measured by ELISA. […] IL-1β concentration was measured by an ELISA kit (Genzyme, Cambridge, Mass.) according to the manufacturer's instructions.
It has been shown that disaccharide molecules derived from heparin and from heparan sulfate can inhibit the secretion of IL-8 and IL-1β by HT-29 cells. […] Subsequently, the cells were treated with TNFα and the secretion of IL-8 was assessed. […]

T1 sequence (P26038 whole entry, the tested form may be a part): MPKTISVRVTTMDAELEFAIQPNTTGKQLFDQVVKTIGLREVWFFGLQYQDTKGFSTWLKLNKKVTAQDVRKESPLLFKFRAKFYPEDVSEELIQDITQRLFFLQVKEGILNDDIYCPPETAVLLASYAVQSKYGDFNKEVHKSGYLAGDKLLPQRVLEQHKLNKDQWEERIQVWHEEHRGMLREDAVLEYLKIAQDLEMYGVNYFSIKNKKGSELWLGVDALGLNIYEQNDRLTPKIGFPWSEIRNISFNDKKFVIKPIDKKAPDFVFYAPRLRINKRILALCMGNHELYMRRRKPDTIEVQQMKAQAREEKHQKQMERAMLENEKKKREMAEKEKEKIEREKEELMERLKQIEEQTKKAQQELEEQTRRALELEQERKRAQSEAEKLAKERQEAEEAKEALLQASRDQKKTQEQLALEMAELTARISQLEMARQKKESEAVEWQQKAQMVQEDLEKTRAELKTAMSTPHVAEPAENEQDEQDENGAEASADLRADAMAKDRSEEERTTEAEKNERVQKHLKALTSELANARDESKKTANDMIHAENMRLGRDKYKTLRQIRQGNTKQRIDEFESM

Molecule: O=C(O)C1=CC(O)C(OS(=O)(=O)O)C(OC2C(COS(=O)(=O)O)OC(O)C(NS(=O)(=O)O)C2O)O1 (stereo not drawn) [DS-9267, 2-O-sulfate-4-deoxy-4-en-iduronic acid-(alpha.-1,4)-2-deoxy-2-N-sulfate-6-O-sulfateglucosamine]
- Jurkat cell adhesion to fibronectin (Jurkat cells): induced
- chemokine-mediated T cell adhesion to fibronectin (T cells): specifically inhibits chemokine-mediated T cell adhesion

- binding to immobilized recombinant moesin versus BSA (recombinant moesin): The difference was significant
- binding to immobilized recombinant moesin versus BSA (recombinant moesin; listed as Heparin-DS): binds to moesin, and not to BSA
Molecule: O=C(O)C1=CC(O)C(OS(=O)(=O)O)C(OC2C(CO)OC(O)C(NS(=O)(=O)O)C2O)O1 (stereo not drawn) [DS-9392, 2-O-Sulfate-4-deoxy-4-en-iduronic acid-(alpha-1,4)-2-deoxy-2-N-sulfateglucosamine]
- chemokine-mediated T cell adhesion to fibronectin (T cells): specifically inhibits chemokine-mediated T cell adhesion

B1: recombinant moesin: Recombinant human moesin residues 1-577, expressed in E. coli as GST fusion and cleaved with thrombin (protein, UniProt P26038 2-577, looked up)
Moesin: PKTISVRVTTMDAELEFAIQPNTTGKQLFDQVVKTIGLREVWFFGLQYQDTKGFSTWLKLNKKVTAQDVRKESPLLFKFRAKFYPEDVSEELIQDITQRLFFLQVKEGILNDDIYCPPETAVLLASYAVQSKYGDFNKEVHKSGYLAGDKLLPQRVLEQHKLNKDQWEERIQVWHEEHRGMLREDAVLEYLKIAQDLEMYGVNYFSIKNKKGSELWLGVDALGLNIYEQNDRLTPKIGFPWSEIRNISFNDKKFVIKPIDKKAPDFVFYAPRLRINKRILALCMGNHELYMRRRKPDTIEVQQMKAQAREEKHQKQMERAMLENEKKKREMAEKEKEKIEREKEELMERLKQIEEQTKKAQQELEEQTRRALELEQERKRAQSEAEKLAKERQEAEEAKEALLQASRDQKKTQEQLALEMAELTARISQLEMARQKKESEAVEWQQKAQMVQEDLEKTRAELKTAMSTPHVAEPAENEQDEQDENGAEASADLRADAMAKDRSEEERTTEAEKNERVQKHLKALTSELANARDESKKTANDMIHAENMRLGRDKYKTLRQIRQGNTKQRIDEFESM
modifications: GST tag removed by thrombin
notes: Recombinant human moesin residues 1-577, expressed in E. coli as GST fusion and cleaved with thrombin
- effect of recombinant moesin on the inhibitory effect of DS on IL-8 and IL-1β secretion (HT-29 cells): antagonized the inhibitory effect of the DS in a dose-dependent manner
